Measured values reported in a melting point compilation (Tetko et al.).

melting point	SMILES
175 °C	O=c1on(-c2ccccc2)cc1-c1ccccc1
322 to 328 °C	NC(CC1CCCCC1)C(=O)O (configuration not stated)
134 °C	CC(C)(C)NC(=O)c1ccccc1
111 °C	Cc1[nH]c(C)c(C)c1C
82 to 84 °C	O=S(=O)(Cl)c1ccc(-c2ccc(F)cc2)cc1
137 to 138 °C	O=C1C(c2ccc(Br)cc2)=C(O)c2ccccc21
328 °C	O=C(Nc1ccc(N=Nc2ccc([N+]([O-])=Nc3ccc(NC(=O)c4ccccc4)cc3)cc2)cc1)c1ccccc1
81 °C	CSC(SC)=C(C#N)C(=O)NCc1ccccc1
69 °C	CCOc1ccc(Br)cc1C=O
152 °C	O=C(N[C@@H](Cc1ccc(Br)cc1)C(=O)O)OCC1c2ccccc2-c2ccccc21
146 to 148 °C	COC(=O)N/C=C/c1ccccc1[N+](=O)[O-]
248 to 252 °C	CCOC(=O)c1c(Nc2ccc(OC)cc2)sc2c(-c3ccccc3)c3c(N)n[nH]c3nc12
234 to 238 °C	Cc1nc2ccccc2n1CCCC(=O)O
214 °C	CC(C)CCCC(C)C1CCC2C3CC(Cl)C4(O)CC(=O)CCC4(C)C3CCC12C (configuration not stated)
205 °C	O=C(CC(NC(=O)OCC1c2ccccc2-c2ccccc21)C(=O)O)NC(c1ccccc1)(c1ccccc1)c1ccccc1 (configuration not stated)
151 °C	COc1ccc2c(c1)CC(CCC(=O)O)(CCC(=O)O)C2=O
32.5 °C	C1CCSSC1
105 °C	O=Cc1c2ccccc2cc2ccccc12
16 °C	CSC(SC)SC
80 °C	N#CC=Cc1cc(C(F)(F)F)cc(C(F)(F)F)c1
-35 °C	COc1cccc(F)c1
82 °C	COc1cc2c(cc1OC)C(C#N)C2 (configuration not stated)
204 °C	Cc1cccc(C(=O)N(NC(=O)c2ccccc2)C(C)(C)C)c1C
135 °C	Cc1c(C)c(C)c(C(=O)Cc2ccccc2)c(C)c1C

melting point	SMILES
225 to 230 °C	CC(=O)Nc1ccc(C=NNC(N)=S)cc1
114 to 116 °C	O=S(=O)(Cl)c1ccc(Oc2ccccc2)nc1
81 to 82 °C	COC(=O)c1cc2occc2n1C
-56 °C	CCCCCCC(=O)OC
111 °C	COc1ccc([C@@H](O)[C@@H](CO)Oc2c(OC)cccc2OC)cc1OC
230 °C	Sc1ncccn1
136 to 139 °C	CCCSc1sc(C(=O)OCC)c2c1C(=O)CCC2
185 to 187 °C	Nc1ncnc2c1ncn2C1CC(O)C(CO)O1 (configuration not stated)
60 °C	Clc1ccnc(Cl)n1
186 °C	O=C1NN=C(C(F)(F)F)C1=NNc1ccccc1
-78 °C	O=C1CCCCC1C1=CCCCC1 (configuration not stated)
101 to 102 °C	CCOC(=O)c1cnn(C)c1N
46 °C	CC(c1ccccc1)C(C)(C)O (configuration not stated)
140 to 142 °C	FC(F)(F)c1cccc(CSc2nnc(S)s2)c1
412 to 415 °C	Cn1c(=O)c2[nH]c(=O)[nH]c2n(C)c1=O
75.5 °C	IC12CC3CC(CC(C3)C1)C2
207 to 208 °C	Cc1nn(Cc2ccc(C(=O)O)o2)c(C)c1Br
104 to 109 °C	O=Cc1cccc(O)c1O
143 to 146 °C	Cc1ccc(C=CC(=O)c2cccc([N+](=O)[O-])c2)cc1
120 to 130 °C	Cn1cnc2c(NCc3ccccc3)nc(NCCO)nc21
294 °C	O=C1C(c2ccc(C3=[N+]([O-])c4cc([N+](=O)[O-])ccc4C3=O)cc2)=[N+]([O-])c2cc([N+](=O)[O-])ccc21
131 to 133 °C	CN(N)c1cnn(C)c(=O)c1Cl
71 to 74 °C	O=C1OC(C2CCCCC2)Cc2ccccc21 (configuration not stated)
140 to 141 °C	O=C(CBr)c1cc2cc(Br)ccc2o1

melting point	SMILES
103 to 107 °C	Cc1cncc(N2CCC(CO)CC2)n1
169 to 172 °C	Cc1cc(C(N)=S)no1
194 to 195 °C	CSC(=Nc1nccs1)SC
68 to 73 °C	CC(CP(c1ccccc1)c1ccccc1)P(c1ccccc1)c1ccccc1 (configuration not stated)
175 °C	O=C(c1ccccc1O)N1CCOCC1
-13 °C	COC(=O)c1ccccc1[N+](=O)[O-]
244 to 248 °C	CC(C)(C)c1ccc(-c2cc(N)c(C(N)=O)s2)cc1
168 to 169 °C	Cn1c(S)nnc1CNC(=O)OC(C)(C)C
114 °C	O=C1C=CC(=O)C(c2ccccc2)=C1
135 °C	O=C(N=NC(=O)N1CCCCC1)N1CCCCC1
96 to 98 °C	O=C(CCl)Nc1ccc(F)c(Cl)c1
104 °C	CC1CCC(C(C)C)C(OC(=O)C(C=Cc2ccccc2)C(=O)c2ccccc2)C1 (configuration not stated)
-101 °C	CC1=NCCS1
-141 °C	CC1CC1C (configuration not stated)
46 to 49 °C	NCc1cc(-c2ccco2)on1
92 °C	CC(=O)NCc1cnccc1C
272 °C	CC(=O)Nc1cc2c(cc1/C=C/c1ccccc1)CC(c1ccccc1)N2C(C)=O (configuration not stated)
156 to 160 °C	CC(C)(C)C1=CC(=Cc2cc(C(C)(C)C)c(O)c(C(C)(C)C)c2)C=C(C(C)(C)C)C1=O
117 to 122 °C	Nc1cnc(N)c(Br)c1
158 °C	Cc1ccc(O)cc1N
176 °C	CC(=O)Nc1cc(CCNC(=O)c2ccccc2)ccc1CCNC(=O)c1ccccc1
303 °C	O=C1C(=Cc2ccc(O)c(O)c2)Oc2cc(O)ccc21
-80 °C	C[Si](C)(C)O[Si](C)(C)O[Si](C)(C)O[Si](C)(C)O[Si](C)(C)C
36 to 37 °C	CCC(=O)c1ccc(C(F)(F)F)cc1

melting point	SMILES
59 to 62 °C	O=S(=O)(CCSCCO)c1ccc(Cl)cc1
178 °C	Oc1c(I)cc(Cl)c2cccnc12
33 °C	Nc1cccc(I)c1
206 to 210 °C	COc1cc(N)c(Cl)cc1C(=O)O
99 °C	CC1CCC(C)(C(=O)CN2C(=O)c3ccccc3C2=O)C1(C)C (configuration not stated)
52 °C	OCc1ccc(SC(F)(F)F)cc1
105 °C	CCCCCCCCOC1OC(CO)C(O)C(O)C1O (configuration not stated)
228 °C	CCCC1C(=O)N2C(N(C)C)=Nc3ccc(C)cc3N2C1=O (configuration not stated)
154 °C	S=C(c1ccc2c(c1)OCO2)N1CCOCC1
178 to 185 °C	O=C1SC(Cl)(Cl)c2nc3c(cc21)C(=O)SC3(Cl)Cl
29 to 31 °C	NCCC(c1ccccc1)c1ccccc1
52 °C	O=[N+]([O-])c1ccc(OS(=O)(=O)C(F)(F)F)cc1
186 to 187 °C	Cn1cncc1C(=O)NN
93 to 95 °C	OCc1csc(-c2cccc(Cl)c2)n1
87 °C	CC=Cc1ccc(OCC)c(O)c1
141 to 142 °C	Cc1noc(C)c1C(=O)O
141 °C	C#CC1(O)CCC2C3CCc4cc(O)ccc4C3CCC21C (configuration not stated)
247 to 249 °C	CCOC(=O)C(C#N)=C(N)c1cc2ccccc2oc1=O
168 to 170 °C	O=C(Nc1nc2ccccc2s1)C(F)(F)C(F)(F)C(F)(F)C(F)(F)C(F)(F)C(F)(F)C(F)(F)C(F)(F)F
126 °C	CC1C2CCC3C4CC=C5CC(N(C)C)CCC5(C)C4CCC32CN1C (configuration not stated)
163 to 166 °C	NC(=NO)c1c(Cl)cccc1Cl
190 °C	NS(=O)(=O)c1ccccc1Cl
155 to 156 °C	Cc1nc(-c2ccc(C(F)(F)F)cc2)sc1C#N
222 °C	Cc1c(C2(c3cc(Br)c(O)c(Br)c3C)OS(=O)(=O)c3ccccc32)cc(Br)c(O)c1Br

melting point	SMILES
209 to 213 °C	Nc1ccc(Cl)cc1C(=O)O
204 to 206 °C	COc1ccccc1C1CCN(c2ccc(C=CC(=O)O)cc2[N+](=O)[O-])CC1
-15 °C	O=C(c1ccc(F)cc1)C1CC1
170 °C	C(=C(\Oc1ccccc1)c1nc2ccccc2s1)/c1ccc2c(c1)OCO2
141 to 142 °C	O=C(N[C@@H](C(=O)O)c1ccccc1)OCC(Cl)(Cl)Cl
180 °C	CCNC(=O)C=C(C)C=CC=C(C)C=Cc1c(C)cc(OC)c(C)c1C
153 to 155 °C	NNC(=O)c1ccc(-c2ccccc2F)cc1
55 to 57 °C	O=S(=O)(c1ccc(Cl)cc1)C(F)(F)C(F)Cl (configuration not stated)
158 to 159 °C	NC(=S)Nc1ccccc1C(F)(F)F
82 to 83 °C	OCc1cc(Cl)cc(Cl)c1O
103 °C	OCCc1ccc2ccccc2n1
58 to 63 °C	CCCCCCCCc1ccc(/N=N/c2ccc(OC(=O)CCCCCCC)cc2)cc1
107 °C	OCc1csc(-c2ccc(C(F)(F)F)cc2)n1
158 to 160 °C	CSc1nc(O)ns1
-2 °C	CCCCCCCCCCCC(=O)OCC
148 °C	CC1(C)C2CCC1(C)C(NC(=O)c1ccccc1)C2NC(=O)c1ccccc1 (configuration not stated)
154 to 156 °C	Cc1noc(N)c1[N+](=O)[O-]
135 °C	Cc1c(N/N=C(/C(=O)c2ccc([N+](=O)[O-])cc2)S(=O)(=O)c2ccccc2)c(=O)n(-c2ccccc2)n1C
40.5 °C	CCCCCCCCCCCCc1ccc(N)cc1
178 °C	COc1ccccc1C=N/N=c1/sc(C(C)=O)nn1-c1ccccc1[N+](=O)[O-]
145 to 149 °C	FC(F)(F)c1cnc(S)c(Cl)c1
190 °C	NS(=O)(=O)c1cc2c(s1)C(O)CCS2=O (configuration not stated)
93 to 95 °C	COc1ccc(CC(=O)O)cc1C

SMILES	melting point
O=C(CI)c1ccccc1	34.4 °C
Cc1c(Cl)c(Cl)c(C)c(Cl)c1Cl	216 °C
O=[N+]([O-])c1cn[nH]c1	161 °C
CCCCNCC(O)c1ccc(O)cc1 (configuration not stated)	124 °C
C=C(C)C1CCC(C)=CC1c1c(O)cc(CCCCC)cc1O (configuration not stated)	67 °C
CC1C(c2ccc(Cl)cc2)SC(=O)N1C(=O)NC1CCCCC1 (configuration not stated)	108 °C
COC(=O)C12ON1c1ccccc1C2=O (configuration not stated)	221 °C
N#CCCP(CCC#N)CCC#N	98 °C
